Assay results as given in ChEMBL document CHEMBL4725253, “Discovery of quinoline-based irreversible BTK inhibitors” (Bioorg Med Chem Lett, 2020).

Legend:
[1] = target: T1, Epidermal growth factor receptor (Homo sapiens, UniProt P00533); assay: Inhibition of EGFR (unknown origin) expressed in baculovirus system using fluorescein labeled PDGFR-tide substrate peptide preincubated for 60 mins followed by ATP addition and measured after 60 mins by IMAP assay
[2] = target: T2, Tyrosine-protein kinase BTK (Homo sapiens, UniProt Q06187); assay: Inhibition of human recombinant full length N-terminal His6-tagged BTK expressed in baculovirus infected Sf9 cells using fluorescein labeled Blk/Lyntide substrate preincubated with enzyme for 60 mins followed by further incubation with substrate and ATP for 120 mins by IMAP assay
[3] = system: Blood; assay: Inhibition of mouse anti-human anti-IgD-stimulated CD69 cell surface expression in human whole blood preincubated for 2 hrs followed by anti-human anti-IgD stimulation for 18 hrs by flow cytometric analysis; type: functional, tissue-based
[4] = target: T2, Tyrosine-protein kinase BTK; assay: Inhibition of His-tagged recombinant human His-tagged full length BTK expressed in baculovirus expression system using Tyr01 peptide as substrate preincubated for 1 hr by Z'lyte assay
[5] = target: T3, Tyrosine-protein kinase ITK/TSK (Homo sapiens, UniProt Q08881); assay: Inhibition of recombinant full length human GST-tagged ITK expressed in baculovirus expression system using tyrosine-1 peptide as substrate preincubated for 1 hr in presence of ATP by Z'-LYTE assay
T3 sequence (Q08881 whole entry): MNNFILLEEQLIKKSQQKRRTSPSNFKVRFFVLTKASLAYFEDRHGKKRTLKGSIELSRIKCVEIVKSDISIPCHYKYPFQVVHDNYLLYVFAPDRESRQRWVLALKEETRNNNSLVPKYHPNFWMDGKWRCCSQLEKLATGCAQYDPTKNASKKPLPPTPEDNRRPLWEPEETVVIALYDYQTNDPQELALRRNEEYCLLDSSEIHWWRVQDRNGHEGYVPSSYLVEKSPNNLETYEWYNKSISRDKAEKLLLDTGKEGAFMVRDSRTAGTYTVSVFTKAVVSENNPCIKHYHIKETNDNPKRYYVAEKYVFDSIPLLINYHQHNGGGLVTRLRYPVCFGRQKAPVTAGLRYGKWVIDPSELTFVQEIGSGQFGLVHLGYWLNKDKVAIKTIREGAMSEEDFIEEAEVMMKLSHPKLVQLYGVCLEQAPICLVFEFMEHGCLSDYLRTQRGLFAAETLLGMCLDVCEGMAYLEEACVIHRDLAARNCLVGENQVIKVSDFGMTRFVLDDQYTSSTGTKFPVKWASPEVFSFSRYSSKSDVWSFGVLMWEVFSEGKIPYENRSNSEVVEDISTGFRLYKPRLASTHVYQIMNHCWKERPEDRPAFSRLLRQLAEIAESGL

[6] = target: Receptor tyrosine-protein kinase erbB-2 (Homo sapiens, UniProt P04626); assay: Inhibition of His-tagged human recombinant ERBB2 (676 to 1255 residues) expressed in baculovirus expression system using Tyr 06 as substrate preincubated for 1 hr in presence of ATP by Z'-LYTE assay
[7] = target: T1, Epidermal growth factor receptor; assay: Inhibition of EGFR phosphorylation in human A431 cells; type: cell-based
[8] = In vivo inhibition of CD69 expression in po dosed mouse; type: functional
[9] = Inhibition of goat anti-human IgM F(ab')-stimulated CD86 cell surface expression in human PBMC preincubated for 2 hrs followed by anti-human IgM stimulation for 18 hrs by flow cytometric analysis; type: functional, tissue-based
[10] = system: Blood; assay: Inhibition of mouse anti-human anti-IgD-stimulated CD86 cell surface expression in human whole blood preincubated for 2 hrs followed by anti-human anti-IgD stimulation for 18 hrs by flow cytometric analysis; type: functional, tissue-based
[11] = target: EGFR (phosphorylation) (Homo sapiens, UniProt P00533); assay: Inhibition of EGFR phosphorylation in human A431 cells at 10000 nM relative to control; type: cell-based
Chain of EGFR (phosphorylation) (P00533 whole entry): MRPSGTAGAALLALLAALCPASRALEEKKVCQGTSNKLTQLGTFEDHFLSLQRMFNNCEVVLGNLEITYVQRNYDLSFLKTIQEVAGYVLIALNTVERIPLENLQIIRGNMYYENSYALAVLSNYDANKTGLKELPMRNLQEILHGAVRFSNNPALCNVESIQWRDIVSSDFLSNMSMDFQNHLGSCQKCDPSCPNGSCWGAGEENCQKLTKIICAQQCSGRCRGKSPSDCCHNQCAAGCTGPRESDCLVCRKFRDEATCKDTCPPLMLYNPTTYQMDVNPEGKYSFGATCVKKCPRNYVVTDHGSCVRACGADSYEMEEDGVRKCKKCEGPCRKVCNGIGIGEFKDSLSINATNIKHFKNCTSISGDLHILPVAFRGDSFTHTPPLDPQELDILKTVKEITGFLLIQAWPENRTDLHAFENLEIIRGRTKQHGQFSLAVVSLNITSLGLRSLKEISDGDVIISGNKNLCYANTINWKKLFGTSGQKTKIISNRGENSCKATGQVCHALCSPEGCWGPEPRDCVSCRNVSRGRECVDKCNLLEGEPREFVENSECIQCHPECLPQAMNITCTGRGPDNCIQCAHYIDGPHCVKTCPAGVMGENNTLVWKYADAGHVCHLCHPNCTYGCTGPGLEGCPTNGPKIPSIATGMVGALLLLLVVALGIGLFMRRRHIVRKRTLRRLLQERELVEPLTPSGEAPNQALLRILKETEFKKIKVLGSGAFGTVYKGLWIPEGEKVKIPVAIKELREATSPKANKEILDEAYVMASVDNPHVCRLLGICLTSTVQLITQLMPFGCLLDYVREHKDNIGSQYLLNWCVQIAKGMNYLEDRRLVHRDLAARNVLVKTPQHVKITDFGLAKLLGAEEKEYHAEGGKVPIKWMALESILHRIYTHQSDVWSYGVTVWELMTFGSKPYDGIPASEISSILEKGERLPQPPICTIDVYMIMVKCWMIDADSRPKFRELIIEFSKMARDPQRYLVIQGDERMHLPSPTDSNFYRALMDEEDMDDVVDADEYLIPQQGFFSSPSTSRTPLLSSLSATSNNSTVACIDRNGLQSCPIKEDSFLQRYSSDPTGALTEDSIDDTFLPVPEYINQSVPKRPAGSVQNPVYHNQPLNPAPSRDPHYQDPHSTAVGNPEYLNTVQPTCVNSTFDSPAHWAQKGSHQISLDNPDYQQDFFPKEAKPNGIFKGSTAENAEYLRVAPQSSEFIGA

T2 sequence (Q06187 whole entry): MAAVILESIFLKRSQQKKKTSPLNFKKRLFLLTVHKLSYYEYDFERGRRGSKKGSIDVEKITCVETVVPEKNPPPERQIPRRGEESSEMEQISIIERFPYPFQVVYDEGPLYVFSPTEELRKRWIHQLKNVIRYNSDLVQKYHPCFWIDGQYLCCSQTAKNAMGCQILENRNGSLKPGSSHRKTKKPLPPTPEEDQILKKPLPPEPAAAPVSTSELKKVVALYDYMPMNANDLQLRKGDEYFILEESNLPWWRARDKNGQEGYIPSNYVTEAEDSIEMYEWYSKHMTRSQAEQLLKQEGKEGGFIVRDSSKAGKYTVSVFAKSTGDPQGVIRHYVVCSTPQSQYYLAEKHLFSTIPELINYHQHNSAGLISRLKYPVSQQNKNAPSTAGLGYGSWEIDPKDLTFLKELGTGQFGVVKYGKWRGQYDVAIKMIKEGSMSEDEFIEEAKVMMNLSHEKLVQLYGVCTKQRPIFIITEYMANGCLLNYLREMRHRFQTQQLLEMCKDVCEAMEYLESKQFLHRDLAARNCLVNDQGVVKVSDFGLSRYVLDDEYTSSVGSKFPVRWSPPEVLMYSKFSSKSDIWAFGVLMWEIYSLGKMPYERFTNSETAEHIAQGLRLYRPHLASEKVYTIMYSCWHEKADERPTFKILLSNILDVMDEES
Chain of Receptor tyrosine-protein kinase erbB-2 (P04626 whole entry, the tested form may be a part): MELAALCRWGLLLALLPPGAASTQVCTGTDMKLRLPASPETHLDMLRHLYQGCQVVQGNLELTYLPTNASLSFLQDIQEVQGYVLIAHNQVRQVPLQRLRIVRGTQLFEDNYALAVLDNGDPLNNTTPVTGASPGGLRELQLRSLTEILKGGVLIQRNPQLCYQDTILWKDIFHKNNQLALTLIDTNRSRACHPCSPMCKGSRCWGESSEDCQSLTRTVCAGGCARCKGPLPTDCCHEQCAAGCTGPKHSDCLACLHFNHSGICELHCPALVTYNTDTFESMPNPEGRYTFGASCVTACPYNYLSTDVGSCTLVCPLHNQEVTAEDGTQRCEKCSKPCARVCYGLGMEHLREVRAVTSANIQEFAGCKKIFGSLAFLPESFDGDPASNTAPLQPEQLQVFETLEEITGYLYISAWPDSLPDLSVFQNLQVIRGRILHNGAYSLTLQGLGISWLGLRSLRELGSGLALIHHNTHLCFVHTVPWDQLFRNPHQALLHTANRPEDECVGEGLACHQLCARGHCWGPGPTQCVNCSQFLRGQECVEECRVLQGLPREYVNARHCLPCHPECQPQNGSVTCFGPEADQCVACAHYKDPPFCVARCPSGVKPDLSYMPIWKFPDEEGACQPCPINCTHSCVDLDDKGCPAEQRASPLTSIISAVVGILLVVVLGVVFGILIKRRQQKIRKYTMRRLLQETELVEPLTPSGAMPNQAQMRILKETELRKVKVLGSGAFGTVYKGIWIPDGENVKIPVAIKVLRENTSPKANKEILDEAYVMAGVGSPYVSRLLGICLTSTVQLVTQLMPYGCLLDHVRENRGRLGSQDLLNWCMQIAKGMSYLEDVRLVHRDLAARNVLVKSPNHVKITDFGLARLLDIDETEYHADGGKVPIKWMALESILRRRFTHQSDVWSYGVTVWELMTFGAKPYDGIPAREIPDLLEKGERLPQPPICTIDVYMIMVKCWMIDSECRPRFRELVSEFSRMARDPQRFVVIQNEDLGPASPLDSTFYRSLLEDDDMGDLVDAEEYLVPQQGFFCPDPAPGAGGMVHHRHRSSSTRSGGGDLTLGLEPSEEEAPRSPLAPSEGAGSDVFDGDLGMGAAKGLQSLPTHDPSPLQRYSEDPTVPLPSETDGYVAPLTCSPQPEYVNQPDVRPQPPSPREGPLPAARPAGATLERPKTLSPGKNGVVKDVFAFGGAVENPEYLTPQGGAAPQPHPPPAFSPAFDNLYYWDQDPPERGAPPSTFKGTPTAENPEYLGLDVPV
T1 sequence (P00533 whole entry): as the sequence (P00533 whole entry) above

## COc1cc2nccc(Oc3ccc(C(=O)Nc4ccccn4)cc3)c2cc1NC(=O)C#CCCN1CCOCC1
[1]
  IC50: 33 nM
[2]
  IC50: 1.6 nM
[3]
  EC50: 13 nM
[4]
  IC50: 1.5 nM
[5]
  IC50: 916 nM
[6]
  IC50: 41 nM
[7]
  EC50: > 1000 nM
[8]
  ED50: 13 mg/kg

## CC#CC(=O)Nc1cc2c(Oc3ccc(C(=O)Nc4ccccn4)cc3)ccnc2cc1OCCN1CCOCC1
[1]
  IC50: > 1000 nM
[2]
  IC50: 0.54 nM
[3]
  EC50: 74 nM
[4]
  IC50: 8.3 nM
[5]
  IC50: > 1000 nM
[6]
  IC50: > 1000 nM
[7]
  EC50: > 1000 nM

## C=CC(=O)Nc1ccc2nccc(Oc3ccc(C(=O)Nc4cc(CC)ccn4)cc3)c2c1
[1]
  IC50: 200 nM
[2]
  IC50: 1.2 nM
[9]
  EC50: 21 nM
[10]
  EC50: 267 nM
[3]
  EC50: 167 nM
[11]
  inhibition at 10 µM: 36%
[4]
  IC50: 4 nM
[5]
  IC50: > 1000 nM
[6]
  IC50: 268 nM
